From publication PMC9035150, “Effects of ALT-801, a GLP-1 and glucagon receptor dual agonist, in a translational mouse model of non-alcoholic steatohepatitis” (Scientific Reports, 2022)

Tested on: DIO-NASH mouse model
Assay: Biopsy-confirmed DIO-NASH (AMLN diet) mouse model, 12 weeks of daily treatment
Format: in vivo
Procedure: ALT-801 was evaluated for its metabolic and anti-fibrotic effects during 12 weeks of treatment in the well-documented Amylin Liver NASH (AMLN) DIO-NASH mouse model[22],[44] at Gubra ApS. Mice had ad libitum access to tap water and a diet high in fat (40%, containing 18% trans-fat; 40% carbohydrates, 20% fructose) and 2% cholesterol (AMLN diet; D09100301, Research Diets, New Brunswick, NJ). Semaglutide (GLP-1R agonist) and elafibranor (peroxisome proliferator-activated receptor [PPAR]-α/δ agonist) were included as comparators to assess the effects of added GCGR agonism, and a previously observed modest antifibrotic effect in this assay, respectively. […]
After 29 weeks of diet induction (week-3 relative to start of treatment) a pre-treatment liver biopsy was performed as described in detail previously[44] to select animals for stratification and randomization based on histological assessment. Liver histology was scored using the NAS and fibrosis stage criteria defined by the NASH Clinical Research Network Pathology Committee[47] and only those animals with confirmed steatosis (score ≥ 2) and fibrosis (stage ≥ 1) were selected for stratification and randomization. A stratified randomization into treatment groups was performed for the biopsy-proven DIO-NASH mice according to liver collagen type 1 alpha 1 (Col1A1) quantification at week-3. […]

## CSc1ccc(C(=O)/C=C/c2cc(C)c(OC(C)(C)C(=O)O)c(C)c2)cc1 [elafibranor]
12 weeks
  Animals with reduction in fibrosis stage of 1 or greater compared to the start of treatment: 75%
Daily for 12 weeks, ALT-801 5 and 10 nmol/kg s.c., semaglutide 10 nmol/kg s.c., elafibranor 78 μmol/kg oral, stabilized after 2–3 weeks, n = 11–12
  Body weight vs. vehicle: significant (p < 0.001) body weight decreases
